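Growth conditions: 96-well plates. Treatment: test compound, 48 hours, 5 concentrations. Analysis: linear interpolation between bracketing concentrations; unreached endpoints set to highest concentration. GI50: concentration for 50% inhibition of growth.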 Active and inactive are the calls of the source. Cut-off read from the data, not from the text of the source: active = GI50 up to about 1.1 µM and inactive = higher.
Legend:
Assay in all cases: NCI anticancer screen, dose series, 48 h
HCC 2998 = tested on: HCC 2998
IGROV-1 = tested on: IGROV-1
HCT-15 = tested on: HCT-15
OVCAR-3 = tested on: OVCAR-3
NCI-H460 = tested on: NCI-H460
LOX IMVI = tested on: LOX IMVI
SW-620 = tested on: SW-620
UO-31 = tested on: UO-31
NCI-H23 = tested on: NCI-H23
K562 = tested on: K562
SK-MEL-28 = tested on: SK-MEL-28
SK-OV-3 = tested on: SK-OV-3
TK-10 = tested on: TK-10
OVCAR-4 = tested on: OVCAR-4
OVCAR-8 = tested on: OVCAR-8
A498 = tested on: A498
SF-539 = tested on: SF-539
PC-3 = tested on: PC-3
NCI-H522 = tested on: NCI-H522
MCF7 = tested on: MCF7

SMILES | GI50 (HCC 2998) | GI50 (IGROV-1) | GI50 (HCT-15) [µM] | GI50 (OVCAR-3) | GI50 (NCI-H460) | GI50 (LOX IMVI) | GI50 (SW-620) | GI50 (UO-31) | GI50 (NCI-H23) | GI50 (K562) | GI50 (SK-MEL-28) | GI50 (SK-OV-3) | GI50 (TK-10) | GI50 (OVCAR-4) | GI50 (OVCAR-8) | GI50 (A498) | GI50 (SF-539) | GI50 (PC-3) | GI50 (NCI-H522) | GI50 (MCF7)
CCc1cccc(C(C)CC)c1NC(=O)CC1C(=O)Nc2ccccc2S1(=O)=O (stereo not given) | 6.17 µM (inactive) | 20.6 µM (inactive) | 13.3 | 13.6 µM (inactive) | 23.9 µM (inactive) | 6.49 µM (inactive) | 8.61 µM (inactive) | 34 µM (inactive) | 7.45 µM (inactive) | 4.95 µM (inactive) | 53.2 µM (inactive) | 43.2 µM (inactive) | 28.7 µM (inactive) | 12.8 µM (inactive) | 4.22 µM (inactive) | 33.6 µM (inactive) | 21.5 µM (inactive) | – | – | –
CCOC(=O)C(CC(C)C)NC(=O)C(N)Cc1ccc(N(CCCl)CCCl)cc1 (stereo not given) | 7.35 µM (inactive) | 13.7 µM (inactive) | 2.38 | 1.95 µM (inactive) | 0.0478 µM (active) | – | 6.62 µM (inactive) | 2.17 µM (inactive) | 1.57 µM (inactive) | 1.58 µM (inactive) | 4.81 µM (inactive) | 3.65 µM (inactive) | 9.71 µM (inactive) | 1.6 µM (inactive) | 4.91 µM (inactive) | 13.9 µM (inactive) | 2.57 µM (inactive) | 10.9 µM (inactive) | 2.66 µM (inactive) | –
O=C1Nc2ccccc2/C1=N/Nc1nc(-c2ccc(Cl)c(Cl)c2)cs1 | > 100 µM (inactive) | 9.73 µM (inactive) | 6.24 | 4.75 µM (inactive) | 17.6 µM (inactive) | > 100 µM (inactive) | > 100 µM (inactive) | 7.01 µM (inactive) | 46.1 µM (inactive) | – | > 100 µM (inactive) | > 100 µM (inactive) | 66.2 µM (inactive) | 77.6 µM (inactive) | 47.4 µM (inactive) | – | 73.5 µM (inactive) | 24 µM (inactive) | – | 37.2 µM (inactive)
CCCCN(CCCC)C(=C(C(Cl)=C(Cl)Cl)[N+](=O)[O-])N(CCCC)CCCC | – | – | 98.6 | 37.2 µM (inactive) | 89.5 µM (inactive) | – | – | > 100 µM (inactive) | 82.2 µM (inactive) | 0.0119 µM (active) | > 100 µM (inactive) | > 100 µM (inactive) | > 100 µM (inactive) | > 100 µM (inactive) | – | > 100 µM (inactive) | > 100 µM (inactive) | 57 µM (inactive) | 48.3 µM (inactive) | –
Nn1c(S)nnc1N/N=C1/C(=O)Nc2c(Cl)cc(Cl)cc21 | 58.2 µM (inactive) | 92.9 µM (inactive) | > 100 | > 100 µM (inactive) | > 100 µM (inactive) | 48.5 µM (inactive) | > 100 µM (inactive) | 47.6 µM (inactive) | > 100 µM (inactive) | 31.2 µM (inactive) | – | 37.2 µM (inactive) | > 100 µM (inactive) | > 100 µM (inactive) | > 100 µM (inactive) | 65.5 µM (inactive) | > 100 µM (inactive) | – | 95.1 µM (inactive) | –
CC1NOC(NS(=O)(=O)c2ccc(/N=N/c3c(O)c(C(=O)O)cc4ccccc34)cc2)C1C (stereo not given) | > 100 µM (inactive) | > 100 µM (inactive) | > 100 | > 100 µM (inactive) | > 100 µM (inactive) | – | > 100 µM (inactive) | 55 µM (inactive) | – | > 100 µM (inactive) | > 100 µM (inactive) | > 100 µM (inactive) | > 100 µM (inactive) | > 100 µM (inactive) | > 100 µM (inactive) | – | > 100 µM (inactive) | > 100 µM (inactive) | 72.4 µM (inactive) | > 100 µM (inactive)
CCOc1nc(OCC)nc(-c2cccn2-c2ccccc2)n1 | 32.3 µM (inactive) | 29.6 µM (inactive) | 34.6 | 20.7 µM (inactive) | 29 µM (inactive) | – | 50.4 µM (inactive) | 22.1 µM (inactive) | 30.8 µM (inactive) | 30.5 µM (inactive) | 35.4 µM (inactive) | 33 µM (inactive) | 23 µM (inactive) | 25.8 µM (inactive) | 35.5 µM (inactive) | 47.4 µM (inactive) | 51.5 µM (inactive) | – | 32.7 µM (inactive) | –
COc1ccc(-c2c(C3=NCCCN3)nnn2-c2ccccc2)cc1 | > 100 µM (inactive) | > 100 µM (inactive) | > 100 | > 100 µM (inactive) | > 100 µM (inactive) | > 100 µM (inactive) | > 100 µM (inactive) | > 100 µM (inactive) | > 100 µM (inactive) | > 100 µM (inactive) | > 100 µM (inactive) | > 100 µM (inactive) | > 100 µM (inactive) | > 100 µM (inactive) | > 100 µM (inactive) | > 100 µM (inactive) | > 100 µM (inactive) | – | > 100 µM (inactive) | –
